Data set [1] concerns the target T1, AtDHDPR1 (dihydrodipicolinate reductase 1) (Arabidopsis thaliana, UniProt O80574).
T1 construct: gene DAPB1; excludes the first 51 amino acids (chloroplast transit peptide); tag cleaved
T1 sequence (O80574 52-347): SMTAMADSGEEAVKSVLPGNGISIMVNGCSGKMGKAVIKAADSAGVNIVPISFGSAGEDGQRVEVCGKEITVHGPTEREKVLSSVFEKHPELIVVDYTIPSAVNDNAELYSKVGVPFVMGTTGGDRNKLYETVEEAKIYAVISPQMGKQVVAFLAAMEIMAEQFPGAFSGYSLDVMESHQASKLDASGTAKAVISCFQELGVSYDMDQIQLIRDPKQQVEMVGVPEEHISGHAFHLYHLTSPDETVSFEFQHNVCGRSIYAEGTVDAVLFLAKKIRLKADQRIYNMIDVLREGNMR
Put plainly: DHDPS-DHDPR coupled spectrophotometric assay (NADPH oxidation, […] nm). It counts as biochemical.

The target of data set [2] is T2, AtDHDPR2 (dihydrodipicolinate reductase 2) (Arabidopsis thaliana, UniProt Q8LB01).
T2 construct: gene DAPB2; excludes the 53-amino-acid chloroplast transit peptide; tag cleaved
T2 sequence (Q8LB01 54-349): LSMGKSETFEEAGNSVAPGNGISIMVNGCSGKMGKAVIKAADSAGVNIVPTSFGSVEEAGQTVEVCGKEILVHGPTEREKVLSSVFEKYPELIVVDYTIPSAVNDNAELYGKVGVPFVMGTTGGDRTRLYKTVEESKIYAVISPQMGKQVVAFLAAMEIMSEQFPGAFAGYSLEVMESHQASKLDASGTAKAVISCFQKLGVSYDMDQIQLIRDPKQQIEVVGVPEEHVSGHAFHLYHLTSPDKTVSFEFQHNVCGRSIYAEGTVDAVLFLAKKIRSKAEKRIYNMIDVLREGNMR
Described as above. It counts as biochemical.

Substrate in data set [3]: NC(=O)C1=CN([C@@H]2O[C@H](COP(=O)(O)OP(=O)(O)OC[C@H]3O[C@@H](n4cnc5c(N)ncnc54)[C@H](OP(=O)(O)O)[C@@H]3O)[C@@H](O)[C@H]2O)C=CC1
As to the kind of experiment: purified protein. As to conditions: varied: cofactor.

Substrate in data set [4]: O=C(O)C1=NC(C(=O)O)CC=C1
Put plainly: purified protein. The conditions noted are these: NADPH.

From paper PMC10203105 (Communications Biology, 2023) come the findings set out here.

The term IC50 denotes the concentration at which inhibition is half-maximal. A higher IC50 goes with a need for much substance. `O=C(O)c1cccc(C(=O)O)n1` [2,6-PDC, 2,6-pyridinedicarboxylic acid]: the IC50 came to 140 µM in data set [1] and 470 µM in data set [2].

B1: AtDHDPR1 (dihydrodipicolinate reductase 1) (Arabidopsis thaliana) (protein)
chain: SMTAMADSGEEAVKSVLPGNGISIMVNGCSGKMGKAVIKAADSAGVNIVPISFGSAGEDGQRVEVCGKEITVHGPTEREKVLSSVFEKHPELIVVDYTIPSAVNDNAELYSKVGVPFVMGTTGGDRNKLYETVEEAKIYAVISPQMGKQVVAFLAAMEIMAEQFPGAFSGYSLDVMESHQASKLDASGTAKAVISCFQELGVSYDMDQIQLIRDPKQQVEMVGVPEEHISGHAFHLYHLTSPDETVSFEFQHNVCGRSIYAEGTVDAVLFLAKKIRLKADQRIYNMIDVLREGNMR
In general, Km refers to the substrate concentration at which the rate is half of its maximum. B1: the Km in “purified protein [3]” is 16 ± 2.6 µM; in “purified protein [4]” it was 37 ± 6.5 µM.
